Source: patent US9718760B2, “Plasminogen activator inhibitor-1 inhibitors and methods of use thereof” (THE REGENTS OF THE UNIVERSITY OF MICHIGAN, priority 2012, dated 2017)
Several values for one entry are separate records, joined by “and”; a condition that tells them apart may be missing. Equal entries are not always repeated. Where two headings read alike, the source gives them in different places.

Biological target: recombinant active human PAI-1 (Homo sapiens (Human), UniProt P05121)
Experiment: Fluorometric PAI-1/uPA IC50 plate assay at pH 7.4
Format: biochemical
Procedure: To determine the efficacy of various synthesized compounds as PAI-1 inhibitors, a fluorometric plate assay was carried out to measure the half maximal inhibitory concentration (IC50) of these compounds on recombinant active human PAI-1 in vitro. An IC50 is a measure of the effectiveness of a compound in inhibiting biological or biochemical function. Stated another way, IC50 represents the concentration of a drug that is required for 50% inhibition in vitro.
PAI-1 inhibitor compounds were dissolved in DMSO to a final concentration of (10-50 mM), depending upon solubility. Compounds were then diluted in physiologic buffer (40 mM HEPES, 100 mM NaCl, 0.05% Tween-20, pH7.4) containing 10% DMSO and a dilution series (from 0 to 1000 uM depending on solubility) was prepared. 80 μL of compound was added per well to a 96-well black, opaque microplate in duplicate. 10 μL of 20 nM Recombinant active human PAI-1 (Molecular Innovations) in physiologic buffer (40 mM HEPES, 100 mM NaCl, 0.05% Tween-20, 10% DMSO, pH 7.4), or […] physiologic buffer with 10% human plasma, was added and the mixture was agitated for 15 minutes at room temperature. 10 μL of 25 nM uPA (Rheotromb®) was added to each reaction well and the plate was agitated for an additional 30 minutes at room temperature. Tripeptide aminomethylcoumarin Gly-Gly-Arg-AMC (Calbiochem) fluorogenic substrate (100 μL of 100 μM) was then added and residual uPA activity was determined based upon cleavage of this substrate. The rate of AMC release by uPA (fluorescence) was measured at an excitation wavelength of 370 nm and an emission wavelength of 440 nm. Controls included PAI-1 and uPA in the absence of compound and uPA alone. Percent PAI-1 inhibition was calculated using the following formula: [(uPA alone-uPA/PAI-1+ compound)/(uPA alone-PAI-1/uPA)]*100%. The IC50 was calculated using Graphit (IC50 0-100%).

[1] = physiologic buffer (40 mM HEPES, 100 mM NaCl, 0.05% Tween-20, 10% DMSO), read-out: PAI-1/uPA IC50 in buffer
[2] = physiologic buffer with 1.5% BSA (15 mg/mL), read-out: PAI-1/uPA IC50 in 1.5% BSA buffer
[3] = physiologic buffer with 10% human plasma, read-out: PAI-1/uPA IC50 in 10% plasma buffer

recombinant active human PAI-1, sequence (P05121 24-402): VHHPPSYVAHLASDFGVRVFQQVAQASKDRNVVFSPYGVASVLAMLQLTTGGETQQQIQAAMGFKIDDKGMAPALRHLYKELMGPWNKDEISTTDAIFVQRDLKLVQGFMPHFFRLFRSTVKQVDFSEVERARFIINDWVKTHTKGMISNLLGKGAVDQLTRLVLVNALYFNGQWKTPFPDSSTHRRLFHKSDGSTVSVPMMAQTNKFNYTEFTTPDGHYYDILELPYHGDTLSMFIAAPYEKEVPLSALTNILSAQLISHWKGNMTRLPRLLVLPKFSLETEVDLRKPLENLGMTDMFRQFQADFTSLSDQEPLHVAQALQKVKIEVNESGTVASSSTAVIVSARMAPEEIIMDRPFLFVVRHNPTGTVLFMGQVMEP

O=C1Cc2cc(C(=O)CNCCNCC(=O)c3ccc4c(c3)CC(=O)N4)ccc2N1 [C225, 5,5′-(2,2′-(ethane-1,2-diylbis(azanediyl))bis(acetyl))bis(indolin-2-one)]
IC50 [1]: 163 µM

COc1ccc(-c2nc(-c3ccc4c(c3)CC(=O)N4)cs2)cc1OC [C227, 5-(2-(3,4-dimethoxyphenyl)thiazol-4-yl)indolin-2-one]
IC50 [1]: 205 µM

O=C1Cc2cc(-c3csc(-c4ccc(O)c(O)c4)n3)ccc2N1 [C228]
IC50 [1]: 14.8 µM

O=C1Cc2cc(S(=O)(=O)NCCc3ccccc3)ccc2N1 [C229, 2-oxo-N-phenethylindoline-5-sulfonamide]
IC50 [1]: 1290 µM

CCCCCCNC(=O)C(=O)NN [C240]
IC50 [1]: 3770 µM and 3910 µM | IC50 [2]: 2220 µM and 1970 µM | IC50 [3]: 1210 µM

CCCCCNC(=O)C(=O)NN [C241]
IC50 [1]: 1930 µM

COc1ccc(CCNC(=O)C(=O)NN)cc1OC [C246]
IC50 [1]: 2560 µM

NNC(=O)C(=O)NCc1ccc(F)cc1 [C248]
IC50 [1]: 1190 µM and 1310 µM | IC50 [2]: 652 µM and 646 µM | IC50 [3]: 478 µM

NNC(=O)C(=O)NCc1ccc(Cl)c(C(F)(F)F)c1 [C251]
IC50 [1]: 68.6 µM and 76 µM | IC50 [2]: 110 µM and 123 µM | IC50 [3]: 108 µM

NNC(=O)C(=O)NCc1ccc(OC(F)(F)F)cc1 [C255]
IC50 [1]: 2060 µM and 1780 µM | IC50 [2]: 221 µM and 292 µM | IC50 [3]: 279 µM

CCOC(=O)C(=O)NCc1ccc(Cl)c(C(F)(F)F)c1 [C256, ethyl 2-((4-chloro-3-(trifluoromethyl)benzyl)amino)-2-oxoacetate]
IC50 [1]: 1040 µM and 1350 µM | IC50 [2]: 204 µM and 235 µM | IC50 [3]: 214 µM

CCOC(=O)C(=O)NCc1ccc(Br)cc1 [C259]
IC50 [1]: 2890 µM and 3140 µM | IC50 [2]: 625 µM and 760 µM | IC50 [3]: 526 µM

NNC(=O)C(=O)NCc1ccc(Br)cc1 [C260]
IC50 [1]: 147 µM and 187 µM | IC50 [3]: 525 µM

NNC(=O)C(=O)NCc1ccc(F)c(C(F)(F)F)c1 [C261]
IC50 [1]: 102 µM and 103 µM | IC50 [2]: 68 µM and 86 µM | IC50 [3]: 69 µM

Cc1cc(CNC(=O)C(=O)NN)ccc1F [C262]
IC50 [1]: 170 µM and 187 µM | IC50 [2]: 63 µM and 84 µM | IC50 [3]: 86 µM

NNC(=O)C(=O)NCc1ccccc1F [C263]
IC50 [1]: 2840 µM | IC50 [2]: 1680 µM | IC50 [3]: 1360 µM

NNC(=O)C(=O)NCc1cccc(F)c1 [C264]
IC50 [1]: 2120 µM | IC50 [2]: 1180 µM | IC50 [3]: 1250 µM

CCOC(=O)C(=O)NCc1cccc(Cl)c1 [C265]
IC50 [1]: 4020 µM

NNC(=O)C(=O)NCc1cccc(Cl)c1 [C266]
IC50 [1]: 568 µM and 549 µM | IC50 [2]: 126 µM | IC50 [3]: 219 µM

CCOC(=O)C(=O)NCc1cccc(C(F)(F)F)c1 [C267]
IC50 [1]: 3790 µM

NNC(=O)C(=O)NCc1cccc(OC(F)(F)F)c1 [C268]
IC50 [1]: 135 µM and 134 µM | IC50 [2]: 65 µM | IC50 [3]: 77 µM

COC(=O)CCC(=O)NCc1ccc(F)c(C(F)(F)F)c1 [C276]
IC50 [1]: 1440 µM | IC50 [2]: 428 µM | IC50 [3]: 476 µM

COC(=O)CCC(=O)NCc1ccc(Cl)c(C(F)(F)F)c1 [C277]
IC50 [1]: 751 µM and 719 µM | IC50 [2]: 165 µM and 158 µM | IC50 [3]: 148 µM and 142 µM

NNC(=O)CCC(=O)NCc1ccc(Cl)c(C(F)(F)F)c1 [C278]
IC50 [1]: 640 µM and 642 µM | IC50 [2]: 118 µM and 130 µM | IC50 [3]: 142 µM

Cc1oncc1C(=O)NCc1ccc(Cl)c(C(F)(F)F)c1 [C279]
IC50 [1]: 539 µM and 593 µM | IC50 [2]: 545 µM and 504 µM | IC50 [3]: 680 µM

O=C(NO)C(=O)NCc1ccc(Cl)c(C(F)(F)F)c1 [C280]
IC50 [1]: 207 µM and 203 µM | IC50 [2]: 166 µM and 159 µM | IC50 [3]: 168 µM

COc1ccc(CNC(=O)C(=O)NN)c(OC)c1 [C281]
IC50 [1]: 2290 µM

Cc1cc(Cl)ccc1CNC(=O)C(=O)NN [C282]
IC50 [1]: 225 µM and 219 µM | IC50 [2]: 163 µM and 154 µM | IC50 [3]: 121 µM

O=C(NO)NCc1ccc(Cl)c(C(F)(F)F)c1 [C284, 1-(4-chloro-3-(trifluoromethyl)benzyl)-3-hydroxyurea]
IC50 [1]: 2480 µM

O=C(NCc1ccc(Cl)c(C(F)(F)F)c1)c1n[nH]c(=O)o1 [C285, N-(4-chloro-3-(trifluoromethyl)benzyl)-5-oxo-4,5-dihydro-1,3,4-oxadiazole-2-carboxamide]
IC50 [1]: 422 µM and 388 µM | IC50 [2]: 265 µM | IC50 [3]: 306 µM

Cc1cc(C(=O)NCc2ccc(Cl)c(C(F)(F)F)c2)no1 [C286]
IC50 [1]: 580 µM

NNC(=O)CCC(=O)NCc1ccc(F)c(C(F)(F)F)c1 [C287]
IC50 [1]: 1190 µM | IC50 [2]: 363 µM | IC50 [3]: 304 µM

COC(=O)CCC(=O)NCc1cccc(C(F)(F)F)c1 [C288]
IC50 [1]: 2910 µM | IC50 [2]: 1060 µM | IC50 [3]: 752 µM

NNC(=O)CCC(=O)NCc1cccc(C(F)(F)F)c1 [C289]
IC50 [1]: 2730 µM | IC50 [2]: 1100 µM | IC50 [3]: 733 µM

COc1cccc(CNC(=O)C(=O)NN)c1 [C295]
IC50 [1]: 1340 µM | IC50 [2]: 776 µM | IC50 [3]: 736 µM

NNC(=O)C(=O)NCc1ccc(C(F)(F)F)cc1 [C296]
IC50 [1]: 112 µM | IC50 [2]: 69 µM | IC50 [3]: 64 µM

NNC(=O)C(=O)NCc1cccc(C(F)(F)F)c1 [C297]
IC50 [1]: 136 µM | IC50 [2]: 111 µM | IC50 [3]: 87 µM

Cc1cc(Cl)ccc1CNC(=O)c1n[nH]c(=O)o1 [C299]
IC50 [1]: 238 µM | IC50 [2]: 739 µM | IC50 [3]: 628 µM

Cc1cc(Cl)ccc1CNC(=O)C(=O)NO [C300]
IC50 [1]: 5490 µM

NNC(=O)C(=O)NCc1cccc(Cl)c1Cl [C301]
IC50 [1]: 173 µM | IC50 [2]: 128 µM | IC50 [3]: 106 µM

NNC(=O)C(=O)NCc1cc(F)c(F)c(F)c1 [C304]
IC50 [1]: 162 µM | IC50 [2]: 90 µM | IC50 [3]: 74 µM

Cc1ccc(CNC(=O)C(=O)NN)cc1F [C305]
IC50 [1]: 224 µM | IC50 [2]: 81 µM | IC50 [3]: 62 µM

Cc1ccc(CNC(=O)c2n[nH]c(=O)o2)cc1F [C306]
IC50 [1]: 1160 µM | IC50 [2]: 403 µM | IC50 [3]: 405 µM

NNC(=O)C(=O)NCc1ccc(Cl)cc1F [C307]
IC50 [1]: 465 µM | IC50 [2]: 99 µM | IC50 [3]: 101 µM

O=C(O)C(=O)NCc1ccc(Cl)c(C(F)(F)F)c1 [C309, 2-((4-chloro-3-(trifluoromethyl)benzyl)amino)-2-oxoacetic acid]
IC50 [1]: 1200 µM

CC(C)=NNC(=O)C(=O)NCc1cc(F)cc(F)c1 [C313]
IC50 [1]: 1200 µM | IC50 [2]: 532 µM | IC50 [3]: 490 µM

CONC(=O)C(=O)NCc1ccc(Cl)c(C(F)(F)F)c1 [C320, N-(4-chloro-3-(trifluoromethyl)benzyl)-N′-methoxyoxalamide]
IC50 [1]: 329 µM | IC50 [2]: 513 µM | IC50 [3]: 693 µM

COc1cc(CNC(=O)C(=O)NN)cc(OC)c1 [C322]
IC50 [1]: 4320 µM

CON(C)C(=O)C(=O)NCc1ccc(Cl)c(C(F)(F)F)c1 [C328]
IC50 [1]: 713 µM | IC50 [2]: 345 µM | IC50 [3]: 318 µM

O=C(NCc1ccc(Cl)c(C(F)(F)F)c1)C(=O)NNS(=O)(=O)c1ccccc1 [C334]
IC50 [1]: 189 µM

N#Cc1ccc(CNC(=O)C(=O)NN)cc1 [C336]
IC50 [1]: 5470 µM | IC50 [2]: 892 µM | IC50 [3]: 851 µM

NNC(=O)C(=O)NCc1cc(C(F)(F)F)cc(C(F)(F)F)c1 [C339]
IC50 [1]: 282 µM | IC50 [2]: 247 µM | IC50 [3]: 303 µM

NNC(=O)C(=O)NCc1cc(F)cc(F)c1 [C340]
IC50 [1]: 337 µM | IC50 [2]: 249 µM | IC50 [3]: 272 µM

Cc1ccc(F)cc1CNC(=O)C(=O)NN [C341]
IC50 [1]: 900 µM | IC50 [2]: 1460 µM | IC50 [3]: 1870 µM

O=C(CCc1ccc(O)c(O)c1)NCc1cccc(C(F)(F)F)c1 [C344]
IC50 [1]: 1000 µM | IC50 [2]: 830 µM | IC50 [3]: 866 µM

O=C(CCc1ccc(O)c(O)c1)NCc1ccc(C(F)(F)F)cc1 [C345]
IC50 [1]: 1470 µM | IC50 [2]: 673 µM | IC50 [3]: 539 µM

O=C(/C=C/c1ccc(O)c(O)c1)NCc1ccc(Cl)c(C(F)(F)F)c1 [C346]
IC50 [1]: 353 µM

O=C(Cc1ccc(O)c(O)c1)NCc1ccc(Cl)c(C(F)(F)F)c1 [C347]
IC50 [1]: 888 µM | IC50 [2]: 309 µM | IC50 [3]: 293 µM

O=C(NCc1ccc(Cl)c(C(F)(F)F)c1)c1ccc(O)c(O)c1 [C348]
IC50 [1]: 99 µM | IC50 [2]: 454 µM | IC50 [3]: 240 µM

O=C(CCc1ccc(O)c(O)c1)NCc1cc(F)c(F)c(F)c1 [C356]
IC50 [1]: 1100 µM | IC50 [2]: 1240 µM | IC50 [3]: 544 µM

O=C(CCc1ccc(O)c(O)c1)NCc1cccc(OC(F)(F)F)c1 [C357]
IC50 [1]: 1370 µM | IC50 [2]: 1230 µM | IC50 [3]: 567 µM

Cc1cc(CNC(=O)CCc2ccc(O)c(O)c2)ccc1F [C358]
IC50 [1]: 1500 µM | IC50 [2]: 1230 µM | IC50 [3]: 619 µM

O=C(CCc1ccc(O)c(O)c1)NCc1ccc(Cl)cc1 [C359]
IC50 [1]: 3370 µM | IC50 [2]: 2080 µM | IC50 [3]: 974 µM

O=C(NCc1ccc(Br)cc1)c1ccc(O)c(O)c1 [C360]
IC50 [1]: 164 µM | IC50 [2]: 1670 µM | IC50 [3]: 771 µM
